Values after ≈ are worked out from the molar mass of the structure shown.
Tests used:
Type in all cases: cell-based
S. aureus ATCC 13709 = assay: MIC, antibacterial potency, S. aureus; conditions: S. aureus (SA); in µg/mL
S. pneumoniae ATCC 51916 = assay: MIC, S. pneumoniae; conditions: S. pneumoniae (Spn52); in µg/mL
E. coli 8 ATCC 25922 = assay: MIC, E. coli 8 (wt); conditions: E. coli 8 (EC8)

| SMILES | MIC, SA (S. aureus ATCC 13709) | MIC Spn52 (S. pneumoniae ATCC 51916) | MIC EC8 (E. coli 8 ATCC 25922) [µg/mL] |
| --- | --- | --- | --- |
| CCc1[nH]c2nc(Oc3cncnc3)nc(Oc3cncc(C#N)c3)c2c1Cl [700,898] | <=0.5 | 2 | – |
| CCc1[nH]c2nc(Oc3cncc(C#N)c3)nc(Oc3cncnc3)c2c1Br [700,899] | <=0.5 | <=0.5 | – |
| CCc1[nH]c2nc(Sc3cnc4nccnc4c3)nc(N3CCC4(CCNCC4)C3)c2c1Cl [700,900] | 8 | 8 | – |
| CCc1[nH]c2nc(Sc3ccc4nccnc4c3)nc(N3CCC4(CCNCC4)C3)c2c1Cl [700,901] | 8 | 4 | – |
| CCc1[nH]c2nc(Sc3ccc4c(N5CC[C@@H](N)C5)ncnc4c3)nc(N3CC[C@@H](N)C3)c2c1Cl [700,903] | 32 | 64 | – |
| CCc1[nH]c2nc(Sc3ccc4c(N5CC(CN)C5)ncnc4c3)nc(N3CC[C@@H](N)C3)c2c1Cl [700,904] | 32 | >64 | – |
| CCc1[nH]c2nc(Sc3cnc4c(=N)n(CC5OCCO5)c(C)nc4c3)nc(N3CC[C@@H](N)C3)c2c1Cl [700,906] | 2 | 4 | > 64 |
| CCc1[nH]c2nc(Oc3cncnc3)nc(N3CC(N)C3)c2c1Cl [700,907] | 8 | 16 | 64 (≈ 185 µM) |
| CCc1[nH]c2nc(Oc3cncnc3)nc(N3CCCC3CO)c2c1Cl (stereo not drawn) [700,908] | 8 | 16 | > 64 |
| CCc1[nH]c2nc(Oc3cncnc3)nc(N3CC(Cc4cncnc4)C3)c2c1Cl [700,909] | 1 | 4 | > 64 |
| CCc1[nH]c2nc(Oc3cncnc3)nc(N3CCC(N)C3)c2c1Cl (stereo not drawn) [700,910] | >64 | >64 | > 64 |
| CCc1[nH]c2nc(Oc3cncnc3)nc(N3CC4C(N)C4C3)c2c1Cl (stereo not drawn) [700,911] | 1 | 2 | > 32 |
| CCc1[nH]c2nc(Sc3ccc4c(Oc5cccc(CNC)c5)cc(C)nc4c3)nc(N3CC[C@@H](N)C3)c2c1Cl [700,912] | 8 | >64 | 32 (≈ 55.7 µM) |
| CCc1[nH]c2nc(Sc3ccc4c(-n5ccnc5)cc(C)nc4c3)nc(N3CC[C@@H](N)C3)c2c1Cl [700,913] | 2 | 2 | > 64 |
| CCc1[nH]c2nc(Sc3ccc4nc(C)nc(N5CC(CN)C5)c4c3)nc(N3CC[C@@H](N)C3)c2c1Cl [700,914] | 64 | >64 | 32 (≈ 61.1 µM) |
| CCc1[nH]c2nc(Sc3ccc4nc(C)nc(N5CC6CNC6C5)c4c3)nc(N3CC[C@@H](N)C3)c2c1Cl (stereo partly drawn) [700,916] | 64 | >64 | > 64 |
| CCc1[nH]c2nc(Sc3ccc4c(N5CC(CN)C5)cc(C(F)(F)F)nc4c3)nc(N3CC[C@@H](N)C3)c2c1Cl [700,917] | 4 | 4 | 8 (≈ 13.9 µM) |
| CCc1[nH]c2nc(Sc3ccc4[nH]c(C(F)(F)F)cc(=O)c4c3)nc(N3CC[C@@H](N)C3)c2c1Cl [700,918] | 2 | 8 | > 64 |
| CCc1[nH]c2nc(Sc3ccc4[nH]cc(C#N)c(=O)c4c3)nc(N3CC[C@@H](N)C3)c2c1Cl [700,919] | >64 | >64 | > 64 |
| CCc1[nH]c2nc(Sc3ccc4[nH]cc(C(=O)O)c(=O)c4c3)nc(N3CC[C@@H](N)C3)c2c1Cl [700,920] | >64 | >64 | > 64 |
| CCc1[nH]c2nc(Sc3cnc4cccnc4c3)nc(N3CCC(NCCN)C3)c2c1Cl (stereo not drawn) [700,921] | 2 | 4 | > 64 |
| CCc1[nH]c2nc(Sc3ccc4c(N5CC(CN)C5)nc(C)nc4c3)nc(N3CC[C@@H](N)C3)c2c1Cl [700,922] | 32 | 64 | 4 (≈ 7.63 µM) |
| CCc1[nH]c2nc(Sc3cnc4c(=N)n(CCCN(C)C)c(C)nc4c3)nc(N3CC[C@@H](N)C3)c2c1Cl [700,923] | 16 | 8 | 64 (≈ 118 µM) |
| CCc1[nH]c2nc(Sc3cnc4c(=N)n(CCN(C)C)c(C)nc4c3)nc(N3CC[C@@H](N)C3)c2c1Cl [700,924] | 16 | 4 | 64 (≈ 121 µM) |
| CCOC(=O)/C=C/c1ccc(Sc2nc(N3CC[C@@H](N)C3)c3c(Cl)c(CC)[nH]c3n2)cc1F [700,925] | 4 | 32 | > 64 |
| CCc1[nH]c2nc(Oc3cncc(C#N)c3)nc(Cc3cccc(C#N)c3)c2c1Cl [700,927] | <=0.5 | 1 | > 64 |
| CCc1[nH]c2nc(Sc3ccc4c(c3)c(=O)c(C#N)cn4CCN(C)C)nc(N3CC[C@@H](N)C3)c2c1Cl [700,928] | 2 | 8 | 16 (≈ 29.8 µM) |
| CCc1[nH]c2nc(Sc3ccc4c(c3)c(=O)c(C#N)cn4CCCN(C)C)nc(N3CC[C@@H](N)C3)c2c1Cl [700,929] | 16 | 64 | 32 (≈ 58.1 µM) |
| CCc1[nH]c2nc(Oc3cccc(C#N)c3)nc(C(C)O)c2c1Cl (stereo not drawn) [700,930] | 8 | 16 | > 64 |
